In a melting point compilation (Tetko et al.; mined from patent text by program, amines drawn as free bases though some values may be those of a salt) one finds melting point data, which are given here for 88 compounds.

Molecules are shown by their SMILES.

As to `CO[Si]1(OC)CCCNCCN1`, the melting point (usually the temperature, or range, at which the solid turns liquid) was 61 to 62 °C. With `COc1ccc(N2CCN(C(=O)CC3CCCc4ccccc43)CC2)cc1` (stereo not drawn) the figure was 133 to 134 °C. In turn, `O=C(NC(Cc1ccccc1)C(=O)O)c1ccccc1O` (stereo not drawn) showed a melting point of 52 to 53 °C. With `NS(=O)(=O)c1cc2c(Cl)csc2s1` the figure was 158 to 160 °C. With `Fc1ccc(C=C(c2ccccc2)C(F)(F)F)cc1` the figure was 35 to 41 °C. With `O=[N+]([O-])c1ccc(C=Cc2ccc(OCCCCCCO)cc2)cc1` the figure was 118 °C. `COc1ccc(-c2nn(Cc3ccccc3)c(=O)c3ccccc23)c(OC)c1OC` showed a melting point of 144 to 145 °C.

Take `CC(C)N(C)C(=O)COc1cc(-c2ccccc2)nc2ccccc12`: the melting point stood at 80 °C.

Take `CCOC(=O)c1cnn2c1c(N1CCN(c3ccccc3)CC1)nc1ccccc12`: the melting point fell in the range of 134 to 135 °C.

`O=S(N=Cc1ccccc1)c1nccnc1Cl` (stereo not drawn) returned a melting point of 113 to 114 °C. For the compound `Cc1ccc([N+](=O)[O-])c2[nH]ccc(=O)c12`, the melting point lay in the range of 219 to 225 °C. As for `COC(=O)c1ccccc1-c1ccc(COc2cc(C)nc3cccnc23)cc1`, the melting point lay within 132 to 134 °C. For the compound `COc1cc(O)c2c(=O)c(OC)c(-c3ccc(OC(=O)C(C)(C)C)c(OC)c3)oc2c1`, the melting point was in the range of 163 to 164 °C. For `CC(C(=O)N(C)c1ccccc1)n1c(-c2ccc(Cl)cc2)nc2cccnc21` (stereo not drawn), the melting point fell in the range of 174 to 177 °C. With `COC(=O)c1ccc(=O)n(-c2ccccc2)c1`, the melting point was 100 to 105 °C. With `Cc1ccc(-c2coc3cc(O)cc(O)c3c2=O)cc1` the figure was 215 to 217 °C; with `COc1ccnc(CSc2nc3c(C)c(OC(F)F)c(C)cc3[nH]2)c1`, 168 to 169 °C; with `O=C(OC1CCN(Cc2ccccc2)CC1)c1ccccc1Br`, 69 to 70 °C. For `O=C1c2ccccc2C(=O)N1CCCC(=O)N1c2ccccc2N(Cc2ccccc2)C(=O)[C@H]2CCC[C@H]21` (relative stereo) the value was 182 to 184 °C; for `c1ccc(CCn2cc3c(ncn4nc(-c5ccco5)nc34)n2)cc1`, 268 to 270 °C. Consider `CC(C)Nc1nc(NC(C)C)nc(OC(F)F)n1`, for which the melting point was 81 to 82 °C. For `COC(=S)Cc1ccc(C(=O)CN2CCN(c3ccncc3)CC2)cc1` the value was 109 to 110 °C. With `CC(=O)c1ccc(CC2SC(=O)NC2=O)cc1` (stereo not drawn) the figure was 171 to 172 °C; with `CCc1nc2c([nH]1)C(=O)N1CCN=C1N2Cc1ccc(Cl)cc1`, 278 to 279 °C. For `CC(=O)OCC(=O)C1=CCC2C3CCC4=CC(=O)CCC4(C)C3CCC12C` (stereo not drawn) the value was 146 to 148 °C; for `CCCCCCCCCCOc1ccc(OCc2ccccc2)c(C(=O)N(CC(=O)OCC)CC(=O)OCC)c1`, 37 to 38 °C. `C=C(C)C(=O)NC(C)C` came in with a melting point of 89 °C.

`O=C(Cc1ccccc1)Nc1ncc(-c2ccc(O)cc2)nc1Cc1ccccc1` displayed a melting point of 259 to 261 °C. The compound `CC(C)n1nc(-c2c(-c3ccccc3)nn3ccc(OCc4ccccn4)cc23)ccc1=O` had a melting point of 150 to 151 °C.

Compound `N#CCc1cnc(N)cn1` showed a melting point of 132 to 134 °C. In turn, `CCOC(=O)c1ncc2[nH]c3cccc(Oc4ccc(Cl)cc4)c3c2c1COC` yielded a melting point of 207 °C. Compound `CNC(=O)c1cccc(NC(=O)CCc2ccccc2C)c1` had a melting point of 131 °C. With `O=C(OCc1ccc(OCc2ccc(Cl)cc2)cc1)c1cccnc1` the figure was 101 to 102 °C; with `O=C(NCCCCCCOC(=O)Oc1ccc([N+](=O)[O-])cc1)OC1CCN(C(=O)OCc2ccccc2)CC1`, 78 to 80 °C. On to `Oc1ccc2c(c1)CC(NCC(O)c1ccccc1)CC2` (stereo not drawn), for which the melting point lay in the range of 157 to 159 °C.

With `N#Cc1c(OCC(F)(F)F)nc(C2CC2)nc1N1CCc2ccccc2CC1`, the melting point lay within 116 to 118 °C. Compound `O=C(c1cc2cc(OCc3ccccc3)ccc2[nH]1)C1(c2ccc(Cl)cc2)CCCC1` displayed a melting point of 134 to 136 °C. Take `CC(C)(C)CC(=O)N[C@H]1CC[C@H](CCN2CCC(c3cccc4c3CCO4)CC2)CC1`: the melting point was 193 °C. For `COC(=O)C(C)(C)Cc1c(SC(C)(C)C)c2cc(OCc3ccc4ccccc4n3)ccc2n1Cc1ccc(Cl)cc1` the value was 166 to 167 °C; for `Cc1cn(-c2ccc(N3C[C@H](CO)OC3=O)cc2F)nn1`, 190 to 192 °C; for `CCN1C(=O)C(C(=O)Nc2ccc(F)cc2)c2cc3c(cc21)C=CCO3` (stereo not drawn), 212 to 214 °C.

`O=C(O)Cn1cccc(NS(=O)(=O)Cc2ccccc2)c1=O` yielded a melting point of 186 to 187 °C. For `N=C(N)Nc1nc(CSCCNC=NS(=O)(=O)c2ccc(Br)cc2)cs1`, the melting point lay in the range of 142 to 146 °C.

In turn, `Cc1cc(C)c(S(=O)(=O)ON)c(C)c1` displayed a melting point of 90 to 91 °C. With `Cc1nc(Cn2c(=O)sc3cc(F)c([N+](=O)[O-])cc32)no1` the figure was 192 to 193 °C; with `O=C(CCCCCC1(C(=O)O)CCCC1)CCCCCC1(C(=O)O)CCCC1`, 78 to 85 °C; with `COC(=O)CC(=O)c1cc(C(=O)OC)cc(-n2cccc2)c1`, 82 to 84 °C. For `COc1cccc(Oc2cccc3c2C2(COc4cc5c(cc42)OCCO5)C(=O)N3C)c1` (stereo not drawn) the value was 166 to 168 °C; for `N#CC1CCc2c([nH]c3ccc(Cl)cc23)C1` (stereo not drawn), 181 to 182 °C. For `Cc1cc(Oc2ccc(Cl)nn2)c(C)cc1N` the value was 138 to 140 °C.

In turn, `CCCn1nc2c(N)nc3ccccc3c2c1CCCCS(C)(=O)=O` gave a melting point of 155 to 157 °C. As for `COc1ccccc1C(c1ccnc2ccccc12)C(C#N)(Cc1cccnc1)C(=O)OC(C)(C)C` (stereo not drawn), the melting point lay in the range of 225 to 228 °C. The compound `COC(=O)Nc1cc(=O)[nH]c(N)n1` registered a melting point of 186 to 188 °C. The compound `CCC(=O)N[C@@H](CC)c1nc2c(C(F)(F)F)cccc2c(O)c1C(=O)Nc1nccs1` yielded a melting point of more than 275 °C.

`COc1cc(C2=C(c3c(-c4ccccc4)[nH]c4ccccc34)C(=O)NC2=O)cc(OC)c1OC`: the melting point was 304 °C. `CC12CC(F)C3C4CCC(=O)C=C4CCC3C1CCC2=O` (stereo not drawn): the melting point lay within 173 to 174 °C. With `COC(=O)c1ccccc1N(C)C(=O)CBr` the figure was 80 to 82 °C; with `Cc1cc(-c2ccc(F)cc2)ccc1C(=O)Nc1ccc2cc(CN3CCCC3)cnc2c1C`, 200 to 203 °C.

With `COc1ccc(C(=O)Nc2ccccc2)cc1NCc1ccc(C(C)C)cc1`, the melting point lay in the range of 174 to 176 °C. For `Cc1cccc(CN2CCN(C(c3ccc(Cl)cc3)c3cccc(OCC(=O)O)c3)CC2)c1` (stereo not drawn) the value was 114 to 120 °C.

`COc1ccc(/C=C/C(=O)c2ccccc2C(=O)O)cc1-c1cccs1` returned a melting point of 79 to 81 °C.

The compound `Cn1ncc2c1-c1c(Sc3ccccn3)sc(C(=O)O)c1CC2` yielded a melting point of 231 to 232 °C. Compound `Cc1cccc(C(=O)c2ccc(OCCOc3ccc(C(=O)c4cccc(C)c4)cc3)cc2)c1` displayed a melting point of 164 to 167 °C. With `CCCCCCCCCCCCCCCCCC(=O)OC1CC(C)(C)N(OC(=O)CCCCCCCCCCCCCCCCC)C(C)(C)C1`, the melting point fell in the range of 62 to 65 °C.

As to `CCOC(=O)N1CCC(=C2c3ccccc3CCn3ncnc32)CC1`, the melting point turned out to be 106 °C. The compound `CC(C)(C)c1ccc(-c2nnc(-c3ccc(C(=O)O)cc3N)o2)cc1` came in with a melting point of 266 to 268 °C. For `O=C(Nc1ccc(CN2CCCCC2)cc1)C1=Cc2cc(C3CCCCC3)ccc2CC1` the value was 180 to 181 °C. Turning to `CCOC(=O)c1cc2c(s1)CC(C)(C)C2=O`, the melting point was 41 to 42 °C. With `Cn1cc(OS(C)(=O)=O)c(=O)c2ccccc21` the figure was 208 to 209 °C; with `COc1cc(OCc2ccccn2)ccc1/C=C/C(=O)CC(=O)/C=C/c1c[nH]c2ccc(F)cc12`, 183 to 186 °C. For `CCS(=O)(=O)c1cc(OC)c(OC)c(C(=O)O)c1` the value was 138 to 139 °C; for `O=C(NCc1ccc(Cl)cc1)c1cn(Cc2cccnc2)c2sc(CN3CCOCC3)cc2c1=O`, 214 to 215 °C. Turning to `CN(C(=O)C(F)(F)F)C1Cc2ccc(C(=O)Cn3cnc4cc(-c5ccc(Cl)cc5)sc4c3=O)cc2C1` (stereo not drawn), the melting point fell in the range of 245 to 248 °C. For `Cc1csc2c(Br)cc3cc(C(=O)O)[nH]c3c12` the value was 229 to 241 °C. The compound `CCOC(=O)c1ncc2[nH]c3ccc(C4COC(O)C4)cc3c2c1C` (stereo not drawn) came in with a melting point of 177 to 180 °C. Compound `CC(C(N)=O)c1ccc2c(c1)C(=O)Cc1ccc(F)cc1S2` (stereo not drawn) came in with a melting point of 176 to 178 °C. With `COc1ccc(NC(=O)N2CCc3cc(S(=O)(=O)N4CC(c5ccccc5)NC4=O)ccc32)cc1` (stereo not drawn) the figure was 268 to 270 °C; with `COc1cc2ncnc(N3CCNCC3)c2cc1OC`, 178 to 179 °C; with `CC(=O)N1CCc2c([nH]c3ccc(Cl)cc23)C1CCCN1CCN(C)CC1` (stereo not drawn), 59 to 61 °C. `O=C(O)C(CC1CCCC1)c1ccc(-c2cccnc2)cc1` (stereo not drawn) displayed a melting point of 136 to 138 °C. In turn, `CCc1nnc(-c2ccc(NC=O)cc2)n1-c1ccccc1OC` displayed a melting point of 250 °C. For `O=[N+]([O-])c1ccc2c(c1)NCC(C(F)F)(C(F)F)O2` the value was 150 to 152 °C.

The compound `Cc1cc(SC2=C(O)CC(C3CCCC3)(C3CCCC3)OC2=O)c(C(C)(C)C)cc1OS(=O)(=O)c1cn(C)cn1` gave a melting point of 143 to 145 °C. For `CC(C)OC(=O)C(O)C(CC1CCCCC1)NC(=O)C(Cc1c[nH]cn1)NC(=O)C(CCOc1ccc(F)cc1)Cc1cccc2ccccc12` (mixture of isomers) the value was 87 to 91 °C; for `COCCOC12CC(CO)CN(C)C1Cc1c[nH]c3cccc2c13` (stereo not drawn), 188 to 193 °C. With `C=CC(=O)N1CC(c2ccccc2)c2ccccc21` (stereo not drawn) the figure was 77 to 78 °C; with `O=C(O)CCC(=C1SCCCS1)c1ccc(Oc2ccccc2)cc1`, 154 to 155 °C. In turn, `CN1C(=O)[C@H](NC(=O)CCc2ccco2)N=C(c2ccccc2)c2ccccc21` had a melting point of 115 to 118 °C.
